# Several values for one entry are separate records, joined by “and”; a condition that tells them apart may be missing. Identical values can stand only once.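 Growth conditions: 96-well plates. Treatment: test compound, 48 hours, 5 concentrations. Analysis: linear interpolation between bracketing concentrations; unreached endpoints set to highest concentration. At the GI50, growth is halved. TGI is the concentration that stops growth completely.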
# Test system: OVCAR-5 ovarian
# Assay: NCI-60 cell line screen, 48 h
SMILES,TGI,GI50
COC1CCC2C(NS(=O)(=O)c3ccc(C)cc3)CCCC2O1 (stereo unspecified) (tested in a mixture with another compound),> 34.5 µM,–
O=C1/C(=C/c2cccc([N+](=O)[O-])c2)COc2ccc(O)cc21,4.76 µM,2.11 µM
CCCCC(=O)OCC(=O)[C@]1(O)Cc2c(O)c3c(c(O)c2[C@@H](OC2CC(NC(=O)C(F)(F)F)C(O)C(C)O2)C1)C(=O)c1c(OC)cccc1C3=O (stereo partly specified),7.49 µM,–
C[C@]12CC[C@H](O)CC1=CC[C@@H]1C2CC[C@]2(C)C(=O)N(N)C(=O)CC12 (stereo partly specified),> 100 µM,–
C=C(CN1CCN(c2ccc(Cl)cc2F)CC1)c1ccc(C(=O)Nc2ccccc2N)cc1,> 100 µM,51.7 µM
CC(C)=CC(=O)C1c2cccc(O)c2C(=O)c2c(O)cc(C)cc21 (stereo unspecified),5.13 µM,–
COC(CN1C(=O)c2cccc3cccc(c23)C1=O)OC,> 100 µM,–
O=C1C=C(Cl)C(=O)C(c2ccc(Cl)cc2)=C1,39.6 µM,–
Cc1ccc2c(=O)cc(-c3ccc(F)cc3)[nH]c2n1,> 100 µM,–
CCOc1ccc(NC(=O)C(=O)CC(=O)c2c[n+](=O)c3cc(C)c(C)cc3n2[O-])cc1,> 100 µM,–
Cn1cc(C2=C(c3cn(C)c4ncccc34)C(=O)NC2=O)c2ccccc21,> 25 µM,10.4 µM
O=C1C(Cl)=C(Nc2cccc(Cl)c2)C(=O)N1Cc1ccc(Cl)cc1Cl,37.1 µM,11.6 µM
CC(=O)NNc1nc(C)c(C(=O)NNC(=O)C(=O)Nc2ccc(Cl)cc2)s1,> 100 µM,–
O=C(/C=C/C12c3ccccc3C(c3ccccc31)C1C(=O)NC(=O)C12)c1ccncc1 (stereo unspecified),13.5 µM,3.11 µM
CC1(C)CCc2c(c3c(c4c(=O)c(O)c(-c5ccc(O)cc5)oc24)OC(C)(C)CC3)O1,> 100 µM,> 100 µM
CC12CCC(O)CC1CCC1C2CCC2(C)C(C3=CC(=O)OC3)CCC12O (stereo unspecified),16.9 µM,–
CN/N=C(/Cc1occc(=O)c1O)C(=O)Nc1ccccc1C,> 100 µM,–
Cc1coc2c1CC1(C)C(CCC(O)C1C)C2 (stereo unspecified),> 100 µM,–
COc1ccc2c(c1)/C(=C/c1c(C)nc3sc(C)nn13)C(=O)N2,> 100 µM,9.28 µM
Cc1cc(I)cc(CN(C)CCCCN2CCCCC2)c1O,40.5 µM,14.3 µM
Cc1ccc(C(=O)/C(=C/c2ccc([N+](=O)[O-])cc2)SCc2ccc(Cl)cc2)cc1,9.12 µM,2.5 µM
O=C(Nc1ccc(Cl)c(Cl)c1)Nc1ccc(Cl)c(Cl)c1,7.53 µM and 17.6 µM,2.74 µM and 4.27 µM
C#Cc1ccc(-n2c(/C=C/c3ccc(C(F)(F)F)cc3)nc3ncccc3c2=O)cc1,3.56 µM,1.94 µM
COc1cc(/C=N/NC(=O)c2ccc(C(F)(F)F)nc2Nc2ccc(Cl)cc2C)ccc1O,15.6 µM,2.9 µM
O=C(N/C(=C\c1ccc(/C=C(\NC(=O)c2ccccc2)c2nc3cc([N+](=O)[O-])ccc3[nH]2)cc1)c1nc2cc([N+](=O)[O-])ccc2[nH]1)c1ccccc1,> 100 µM,–
COc1ccc(C(=O)Cn2c(C(=O)c3ccccc3)nc(-c3ccc(OC)cc3)c2-c2ccc(OC)cc2)cc1,> 100 µM,> 100 µM
O=C1c2ccccc2C2C1N2C(=O)C(F)(F)F (stereo unspecified),> 100 µM,–
CC1=C(C(=O)NCc2ccccc2)C(/C=C/c2ccccc2)C(C(=O)NCc2ccccc2)=C(C)N1,> 100 µM,–
CSc1nc2c(c(=O)[nH]1)N=C1c3ccccc3C(=O)C1C(c1ccccc1)N2 (stereo unspecified),> 100 µM,63.4 µM
CCOC(=O)[C@]1(OC(C)=O)C[C@H](OC(C)=O)[C@@H](C(F)COP(=O)(OCc2ccccc2)OCc2ccccc2)O1 (stereo partly specified),95 µM and > 100 µM,32.7 µM and > 100 µM

# Test system: IGROV1 ovarian
# Assay: NCI-60 cell line screen, 48 h
SMILES,TGI,GI50
COC1CCC2C(NS(=O)(=O)c3ccc(C)cc3)CCCC2O1 (stereo unspecified) (tested in a mixture with another compound),> 34.5 µM,–
O=C1/C(=C/c2cccc([N+](=O)[O-])c2)COc2ccc(O)cc21,3.34 µM,1.73 µM
CCCCC(=O)OCC(=O)[C@]1(O)Cc2c(O)c3c(c(O)c2[C@@H](OC2CC(NC(=O)C(F)(F)F)C(O)C(C)O2)C1)C(=O)c1c(OC)cccc1C3=O (stereo partly specified),17 µM,–
C[C@]12CC[C@H](O)CC1=CC[C@@H]1C2CC[C@]2(C)C(=O)N(N)C(=O)CC12 (stereo partly specified),> 100 µM,–
C=C(CN1CCN(c2ccc(Cl)cc2F)CC1)c1ccc(C(=O)Nc2ccccc2N)cc1,14.8 µM,1.16 µM
CC(C)=CC(=O)C1c2cccc(O)c2C(=O)c2c(O)cc(C)cc21 (stereo unspecified),4.76 µM,–
COC(CN1C(=O)c2cccc3cccc(c23)C1=O)OC,> 100 µM,–
O=C1C=C(Cl)C(=O)C(c2ccc(Cl)cc2)=C1,30.8 µM,–
Cc1ccc2c(=O)cc(-c3ccc(F)cc3)[nH]c2n1,> 100 µM,–
CCOc1ccc(NC(=O)C(=O)CC(=O)c2c[n+](=O)c3cc(C)c(C)cc3n2[O-])cc1,> 100 µM,–
Cn1cc(C2=C(c3cn(C)c4ncccc34)C(=O)NC2=O)c2ccccc21,> 25 µM,15.5 µM
O=C1C(Cl)=C(Nc2cccc(Cl)c2)C(=O)N1Cc1ccc(Cl)cc1Cl,9.15 µM,< 0.023 µM
CC(=O)NNc1nc(C)c(C(=O)NNC(=O)C(=O)Nc2ccc(Cl)cc2)s1,> 100 µM,–
O=C(/C=C/C12c3ccccc3C(c3ccccc31)C1C(=O)NC(=O)C12)c1ccncc1 (stereo unspecified),8 µM,2.39 µM
CC1(C)CCc2c(c3c(c4c(=O)c(O)c(-c5ccc(O)cc5)oc24)OC(C)(C)CC3)O1,> 100 µM,> 100 µM
CC12CCC(O)CC1CCC1C2CCC2(C)C(C3=CC(=O)OC3)CCC12O (stereo unspecified),19.4 µM,–
CN/N=C(/Cc1occc(=O)c1O)C(=O)Nc1ccccc1C,> 100 µM,–
Cc1coc2c1CC1(C)C(CCC(O)C1C)C2 (stereo unspecified),> 100 µM,–
COc1ccc2c(c1)/C(=C/c1c(C)nc3sc(C)nn13)C(=O)N2,> 100 µM,2.18 µM
Cc1cc(I)cc(CN(C)CCCCN2CCCCC2)c1O,41 µM,17.7 µM
Cc1ccc(C(=O)/C(=C/c2ccc([N+](=O)[O-])cc2)SCc2ccc(Cl)cc2)cc1,8.6 µM,2.23 µM
O=C(Nc1ccc(Cl)c(Cl)c1)Nc1ccc(Cl)c(Cl)c1,22.2 µM and 10.5 µM,4.2 µM and 3.36 µM
C#Cc1ccc(-n2c(/C=C/c3ccc(C(F)(F)F)cc3)nc3ncccc3c2=O)cc1,4.02 µM,1.96 µM
COc1cc(/C=N/NC(=O)c2ccc(C(F)(F)F)nc2Nc2ccc(Cl)cc2C)ccc1O,7.02 µM,0.838 µM
O=C(N/C(=C\c1ccc(/C=C(\NC(=O)c2ccccc2)c2nc3cc([N+](=O)[O-])ccc3[nH]2)cc1)c1nc2cc([N+](=O)[O-])ccc2[nH]1)c1ccccc1,> 100 µM,–
COc1ccc(C(=O)Cn2c(C(=O)c3ccccc3)nc(-c3ccc(OC)cc3)c2-c2ccc(OC)cc2)cc1,> 100 µM,71.2 µM
O=C1c2ccccc2C2C1N2C(=O)C(F)(F)F (stereo unspecified),> 100 µM,–
CC1=C(C(=O)NCc2ccccc2)C(/C=C/c2ccccc2)C(C(=O)NCc2ccccc2)=C(C)N1,> 100 µM,–
CSc1nc2c(c(=O)[nH]1)N=C1c3ccccc3C(=O)C1C(c1ccccc1)N2 (stereo unspecified),> 100 µM,4.54 µM
CCOC(=O)[C@]1(OC(C)=O)C[C@H](OC(C)=O)[C@@H](C(F)COP(=O)(OCc2ccccc2)OCc2ccccc2)O1 (stereo partly specified),39.8 µM and > 100 µM,19.6 µM and > 100 µM

# Test system: SN12C renal
# Assay: NCI-60 cell line screen, 48 h
SMILES,TGI,GI50
COC1CCC2C(NS(=O)(=O)c3ccc(C)cc3)CCCC2O1 (stereo unspecified) (tested in a mixture with another compound),> 34.5 µM,–
O=C1/C(=C/c2cccc([N+](=O)[O-])c2)COc2ccc(O)cc21,3.47 µM,1.79 µM
CCCCC(=O)OCC(=O)[C@]1(O)Cc2c(O)c3c(c(O)c2[C@@H](OC2CC(NC(=O)C(F)(F)F)C(O)C(C)O2)C1)C(=O)c1c(OC)cccc1C3=O (stereo partly specified),3.91 µM,–
C[C@]12CC[C@H](O)CC1=CC[C@@H]1C2CC[C@]2(C)C(=O)N(N)C(=O)CC12 (stereo partly specified),> 100 µM,–
C=C(CN1CCN(c2ccc(Cl)cc2F)CC1)c1ccc(C(=O)Nc2ccccc2N)cc1,> 100 µM,1.87 µM
CC(C)=CC(=O)C1c2cccc(O)c2C(=O)c2c(O)cc(C)cc21 (stereo unspecified),25.4 µM,–
COC(CN1C(=O)c2cccc3cccc(c23)C1=O)OC,> 100 µM,–
O=C1C=C(Cl)C(=O)C(c2ccc(Cl)cc2)=C1,44.4 µM,–
Cc1ccc2c(=O)cc(-c3ccc(F)cc3)[nH]c2n1,> 100 µM,–
CCOc1ccc(NC(=O)C(=O)CC(=O)c2c[n+](=O)c3cc(C)c(C)cc3n2[O-])cc1,> 100 µM,–
Cn1cc(C2=C(c3cn(C)c4ncccc34)C(=O)NC2=O)c2ccccc21,> 25 µM,6.9 µM
O=C1C(Cl)=C(Nc2cccc(Cl)c2)C(=O)N1Cc1ccc(Cl)cc1Cl,12.8 µM,0.252 µM
CC(=O)NNc1nc(C)c(C(=O)NNC(=O)C(=O)Nc2ccc(Cl)cc2)s1,> 100 µM,–
O=C(/C=C/C12c3ccccc3C(c3ccccc31)C1C(=O)NC(=O)C12)c1ccncc1 (stereo unspecified),12 µM,2.55 µM
CC1(C)CCc2c(c3c(c4c(=O)c(O)c(-c5ccc(O)cc5)oc24)OC(C)(C)CC3)O1,> 100 µM,82.9 µM
